According to ChEMBL document CHEMBL1201862, “PubChem BioAssay data set” (2004):
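Each compound was tested at five concentrations against cells in 96-well plates for 48 hours. GI50 marks 50% less growth.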 Activity calls are given as the source filed them. Cut-off read from the data, not from the text of the source: active = GI50 up to about 1.1 µM and inactive = higher.

Tests used:
Experiment in all cases: growth of human tumour cells (NCI), 48 h
A549 = tested on: A549
EKVX = tested on: EKVX
PC-3 = tested on: PC-3
HL-60 = tested on: HL-60
SK-OV-3 = tested on: SK-OV-3
A498 = tested on: A498
OVCAR-5 = tested on: OVCAR-5
DU-145 = tested on: DU-145
UACC-257 = tested on: UACC-257
ACHN = tested on: ACHN
HCC 2998 = tested on: HCC 2998
SF-539 = tested on: SF-539
HOP-92 = tested on: HOP-92
KM12 = tested on: KM12
TK-10 = tested on: TK-10
OVCAR-4 = tested on: OVCAR-4
MCF7 = tested on: MCF7
Hs-578T = tested on: Hs-578T
NCI-H226 = tested on: NCI-H226
UACC-62 = tested on: UACC-62

Structure (SMILES)	GI50 (A549)	GI50 (EKVX)	GI50 (PC-3)	GI50 (HL-60)	GI50 (SK-OV-3)	GI50 (A498)	GI50 (OVCAR-5)	GI50 (DU-145)	GI50 (UACC-257)	GI50 (ACHN)	GI50 (HCC 2998)	GI50 (SF-539)	GI50 (HOP-92)	GI50 (KM12)	GI50 (TK-10)	GI50 (OVCAR-4)	GI50 (MCF7)	GI50 (Hs-578T)	GI50 (NCI-H226)	GI50 (UACC-62)
Oc1c(O)c(Cc2ccccc2)c(Cc2ccccc2)c(Cc2ccccc2)c1Cc1ccccc1	> 10 µM (inactive)	> 10 µM (inactive)	> 10 µM (inactive)	> 10 µM (inactive)	> 10 µM (inactive)	> 10 µM (inactive)	> 10 µM (inactive)	> 10 µM (inactive)	> 10 µM (inactive)	> 10 µM (inactive)	> 10 µM (inactive)	> 10 µM (inactive)	> 10 µM (inactive)	> 10 µM (inactive)	> 10 µM (inactive)	> 10 µM (inactive)	> 10 µM (inactive)	> 10 µM (inactive)	> 10 µM (inactive)	> 10 µM (inactive)
Cc1ccc(NC(=O)CC(=O)n2nc(C)c(/N=N/c3cccc(C)c3)c2C)cc1	> 100 µM (inactive)	31 µM (inactive)	> 100 µM (inactive)	38 µM (inactive)	> 100 µM (inactive)	> 100 µM (inactive)	> 100 µM (inactive)	> 100 µM (inactive)	> 100 µM (inactive)	> 100 µM (inactive)	> 100 µM (inactive)	> 100 µM (inactive)	14 µM (inactive)	> 100 µM (inactive)	> 100 µM (inactive)	> 100 µM (inactive)	> 100 µM (inactive)	38.5 µM (inactive)	> 100 µM (inactive)	> 100 µM (inactive)
CNC(=O)/C=C/C1=CN2C(=O)c3ccc(C)c(O)c3NC(OC)C2C1 (stereo not given)	< 0.0149 µM (active)	0.0163 µM (active)	< 0.016 µM (active)	0.0298 µM (active)	< 0.0206 µM (active)	0.0533 µM (active)	0.0244 µM (active)	< 0.01 µM (active)	< 0.013 µM (active)	0.0142 µM (active)	< 0.0126 µM (active)	< 0.0135 µM (active)	0.0166 µM (active)	< 0.0139 µM (active)	0.0142 µM (active)	< 0.0132 µM (active)	< 0.0163 µM (active)	< 0.0145 µM (active)	0.0141 µM (active)	< 0.0124 µM (active)
Cc1c2c(OCC(O)CN3CCN(c4ccccc4)CC3)nn(C)c(=O)c2c(C)n1-c1ccccc1 (stereo not given)	24.7 µM (inactive)	34.8 µM (inactive)	22 µM (inactive)	20.1 µM (inactive)	43 µM (inactive)	20.3 µM (inactive)	23.4 µM (inactive)	37.9 µM (inactive)	28 µM (inactive)	20.6 µM (inactive)	29.7 µM (inactive)	19.2 µM (inactive)	44.4 µM (inactive)	29.3 µM (inactive)	47.5 µM (inactive)	30.3 µM (inactive)	18.4 µM (inactive)	24.4 µM (inactive)	23.2 µM (inactive)	17.1 µM (inactive)
